{"source": "patent US6358885B1", "about": "“Substituted phenylheterocyclic herbicides” (Mississippi State University, priority 1992, dated 2002)", "key": {"barley": {"tested_on": "barley", "assay": "Test B preemergence/postemergence greenhouse plant response rating 0 to 10", "type": "in vivo, Hordeum vulgare", "conditions": "0 to 10 scale", "how_it_was_run": "(§1)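 Postemergence treatment of plants two to eighteen cm tall ran alongside preemergence treatment of planted seed, each using compound in a non-phytotoxic solvent.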"}, "bedstraw": {"tested_on": "bedstraw", "assay": "Test B preemergence/postemergence greenhouse plant response rating 0 to 10", "type": "in vivo, Galium aparine", "conditions": "0 to 10 scale", "how_it_was_run": "as §1"}, "blackgrass": {"tested_on": "blackgrass", "assay": "Test B preemergence/postemergence greenhouse plant response rating 0 to 10", "type": "in vivo, Alopecurus myosuroides", "conditions": "0 to 10 scale", "how_it_was_run": "as §1"}, "cocklebur": {"tested_on": "cocklebur", "assay": "Test B preemergence/postemergence greenhouse plant response rating 0 to 10", "type": "in vivo, Xanthium pensylvanicum", "conditions": "0 to 10 scale", "how_it_was_run": "as §1"}, "crabgrass": {"tested_on": "crabgrass", "assay": "Test B preemergence/postemergence greenhouse plant response rating 0 to 10", "type": "in vivo, Digitaria spp.", "conditions": "0 to 10 scale", "how_it_was_run": "as §1"}, "lambsquarters": {"tested_on": "lambsquarters", "assay": "Test B preemergence/postemergence greenhouse plant response rating 0 to 10", "type": "in vivo, Chenopodium album", "conditions": "0 to 10 scale", "how_it_was_run": "as §1"}, "rape": {"tested_on": "rape", "assay": "Test B preemergence/postemergence greenhouse plant response rating 0 to 10", "type": "in vivo, Brassica napus", "conditions": "0 to 10 scale", "how_it_was_run": "as §1"}, "rice [1]": {"tested_on": "rice", "assay": "Test B preemergence/postemergence greenhouse plant response rating 0 to 10", "type": "in vivo, Oryza sativa", "conditions": "0 to 10 scale", "how_it_was_run": "as §1"}, "soybean": {"tested_on": "soybean", "assay": "Test B preemergence/postemergence greenhouse plant response rating 0 to 10", "type": "in vivo, Glycine max", "conditions": "0 to 10 scale", "how_it_was_run": "as §1"}, "sugar beet": {"tested_on": "sugar beet", "assay": "Test B preemergence/postemergence greenhouse plant response rating 0 to 10", "type": "in vivo, Beta vulgaris", "conditions": "0 to 10 scale", "how_it_was_run": "as §1"}, "purple nutsedge": {"tested_on": "purple nutsedge", "assay": "Test B preemergence/postemergence greenhouse plant response rating 0 to 10", "type": "in vivo, Cyperus rotundus", "conditions": "0 to 10 scale", "how_it_was_run": "as §1"}, "corn": {"tested_on": "corn", "assay": "Test C preemergence/postemergence greenhouse plant response rating 0 to 100", "type": "in vivo, Zea mays", "conditions": "POSTEMERGENCE; for Plant response rating, Corn: 0 to 100 scale", "how_it_was_run": "(§2)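 Compounds in non-phytotoxic solvent went onto sandy loam before emergence (seeded one day earlier) or onto plants at the one-to-four leaf stage. Duck salad was treated via flood water (~2.5 cm, maintained) over silt loam.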"}, "morningglory": {"tested_on": "morningglory", "assay": "Test C preemergence/postemergence greenhouse plant response rating 0 to 100", "type": "in vivo, Ipomoea hederacea", "conditions": "POSTEMERGENCE; for Plant response rating, Morningglory: 0 to 100 scale", "how_it_was_run": "as §2"}, "pigweed": {"tested_on": "pigweed", "assay": "Test C preemergence/postemergence greenhouse plant response rating 0 to 100", "type": "in vivo, Amaranthusretroflexus", "conditions": "POSTEMERGENCE; for Plant response rating Pigweed: 0 to 100 scale", "how_it_was_run": "as §2"}, "sorghum": {"tested_on": "sorghum", "assay": "Test C preemergence/postemergence greenhouse plant response rating 0 to 100", "type": "in vivo, Sorghum bicolor", "conditions": "POSTEMERGENCE; for Plant response rating, Sorghum: 0 to 100 scale", "how_it_was_run": "as §2"}, "rice [2]": {"tested_on": "rice", "assay": "Test C flood test plant response rating 0 to 100", "type": "in vivo, Oryza sativa", "conditions": "for Plant response rating Rice Japonica: flood test species listed under POSTEMERGENCE, 0 to 100 scale", "how_it_was_run": "(§3)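 Compounds in non-phytotoxic solvent applied preemergence to sandy loam one day after planting, postemergence at the 1–4 leaf stage, or to ~2.5 cm floodwater over silt loam.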"}, "umbrella sedge": {"tested_on": "umbrella sedge", "assay": "Test C flood test plant response rating 0 to 100", "type": "in vivo, Cyperus difformis", "conditions": "for Plant response rating Umbrella sedge: flood test species listed under POSTEMERGENCE, 0 to 100 scale", "how_it_was_run": "as §3"}, "barnyardgrass": {"tested_on": "barnyardgrass", "assay": "Test C flood test plant response rating 0 to 100", "type": "in vivo, Echinochloa crus-galli", "conditions": "for Plant response rating Barnyardgrass 2: flood test species listed under POSTEMERGENCE, 0 to 100 scale", "how_it_was_run": "as §3"}, "[3]": {"conditions": "POSTEMERGENCE section, flood test, Rate 4 g/ha"}, "[4]": {"conditions": "Rate 16 g/ha, under POSTEMERGENCE head (flood test species)"}}}
{"compound": "CC(C)OC(=O)c1cc(-c2nn3c(c2Cl)CCCC3)c(F)cc1Cl", "note": "[Compound 44]", "values": [{"measurement": "Plant response rating, Barley", "setting": "barley; POSTEMERGENCE, Rate 50 g/ha", "result": 4}, {"measurement": "Plant response rating, Barley", "setting": "barley; POSTEMERGENCE, Rate 200 g/ha", "result": 6}, {"measurement": "Plant response rating, Barley", "setting": "barley; PREEMERGENCE, Rate 50 g/ha", "result": 1}, {"measurement": "Plant response rating, Barley", "setting": "barley; Rate 200 g/ha, PREEMERGENCE", "result": 2}, {"measurement": "Plant response rating, Bedstraw", "setting": "bedstraw; POSTEMERGENCE, Rate 50 g/ha", "result": 9}, {"measurement": "Plant response rating, Bedstraw", "setting": "bedstraw; POSTEMERGENCE, Rate 200 g/ha", "result": 9}, {"measurement": "Plant response rating, Bedstraw", "setting": "bedstraw; PREEMERGENCE, Rate 50 g/ha", "result": 8}, {"measurement": "Plant response rating, Bedstraw", "setting": "bedstraw; Rate 200 g/ha, PREEMERGENCE", "result": 10}, {"measurement": "Plant response rating, Blackgrass", "setting": "blackgrass; POSTEMERGENCE, Rate 50 g/ha", "result": 8}, {"measurement": "Plant response rating, Blackgrass", "setting": "blackgrass; POSTEMERGENCE, Rate 200 g/ha", "result": 9}, {"measurement": "Plant response rating, Blackgrass", "setting": "blackgrass; PREEMERGENCE, Rate 50 g/ha", "result": 4}, {"measurement": "Plant response rating, Blackgrass", "setting": "blackgrass; Rate 200 g/ha, PREEMERGENCE", "result": 6}, {"measurement": "Plant response rating, Cocklebur", "setting": "cocklebur; POSTEMERGENCE, Rate 50 g/ha", "result": 9}, {"measurement": "Plant response rating, Cocklebur", "setting": "cocklebur; POSTEMERGENCE, Rate 200 g/ha", "result": 10}, {"measurement": "Plant response rating, Cocklebur", "setting": "cocklebur; PREEMERGENCE, Rate 50 g/ha", "result": 6}, {"measurement": "Plant response rating, Cocklebur", "setting": "cocklebur; Rate 200 g/ha, PREEMERGENCE", "result": 9}, {"measurement": "Plant response rating, Crabgrass", "setting": "crabgrass; POSTEMERGENCE, Rate 200 g/ha", "result": 10}, {"measurement": "Plant response rating, Crabgrass", "setting": "crabgrass; PREEMERGENCE, Rate 50 g/ha", "result": 3}, {"measurement": "Plant response rating, Crabgrass", "setting": "crabgrass; Rate 200 g/ha, PREEMERGENCE", "result": 9}, {"measurement": "Plant response rating, Lambsquarter", "setting": "lambsquarters; POSTEMERGENCE, Rate 50 g/ha", "result": 10}, {"measurement": "Plant response rating, Lambsquarter", "setting": "lambsquarters; PREEMERGENCE, Rate 50 g/ha", "result": 10}, {"measurement": "Plant response rating, Lambsquarter", "setting": "lambsquarters; Rate 200 g/ha, POSTEMERGENCE", "result": 10}, {"measurement": "Plant response rating, Lambsquarter", "setting": "lambsquarters; Rate 200 g/ha, PREEMERGENCE", "result": 10}, {"measurement": "Plant response rating, Rape", "setting": "rape; POSTEMERGENCE, Rate 50 g/ha", "result": 9}, {"measurement": "Plant response rating, Rape", "setting": "rape; PREEMERGENCE, Rate 50 g/ha", "result": 2}, {"measurement": "Plant response rating, Rape", "setting": "rape; Rate 200 g/ha, POSTEMERGENCE", "result": 10}, {"measurement": "Plant response rating, Rape", "setting": "rape; Rate 200 g/ha, PREEMERGENCE", "result": 8}, {"measurement": "Plant response rating, Rice", "setting": "rice [1]; POSTEMERGENCE, Rate 50 g/ha", "result": 5}, {"measurement": "Plant response rating, Rice", "setting": "rice [1]; PREEMERGENCE, Rate 50 g/ha", "result": 1}, {"measurement": "Plant response rating, Rice", "setting": "rice [1]; Rate 200 g/ha, POSTEMERGENCE", "result": 9}, {"measurement": "Plant response rating, Rice", "setting": "rice [1]; Rate 200 g/ha, PREEMERGENCE", "result": 2}, {"measurement": "Plant response rating, Soybean", "setting": "soybean; POSTEMERGENCE, Rate 50 g/ha", "result": 8}, {"measurement": "Plant response rating, Soybean", "setting": "soybean; PREEMERGENCE, Rate 50 g/ha", "result": 0}, {"measurement": "Plant response rating, Soybean", "setting": "soybean; Rate 200 g/ha, POSTEMERGENCE", "result": 8}, {"measurement": "Plant response rating, Soybean", "setting": "soybean; Rate 200 g/ha, PREEMERGENCE", "result": 3}, {"measurement": "Plant response rating, Sugar beet", "setting": "sugar beet; POSTEMERGENCE, Rate 50 g/ha", "result": 10}, {"measurement": "Plant response rating, Sugar beet", "setting": "sugar beet; PREEMERGENCE, Rate 50 g/ha", "result": 10}, {"measurement": "Plant response rating, Sugar beet", "setting": "sugar beet; Rate 200 g/ha, POSTEMERGENCE", "result": 10}, {"measurement": "Plant response rating, Sugar beet", "setting": "sugar beet; Rate 200 g/ha, PREEMERGENCE", "result": 10}, {"measurement": "Plant response rating, Nutsedge", "setting": "purple nutsedge; POSTEMERGENCE, Rate 50 g/ha", "result": 4}, {"measurement": "Plant response rating, Nutsedge", "setting": "purple nutsedge; PREEMERGENCE, Rate 50 g/ha", "result": 0}, {"measurement": "Plant response rating, Nutsedge", "setting": "purple nutsedge; Rate 200 g/ha, POSTEMERGENCE", "result": 8}, {"measurement": "Plant response rating, Nutsedge", "setting": "purple nutsedge; Rate 200 g/ha, PREEMERGENCE", "result": 3}, {"measurement": "Plant response rating, Corn", "setting": "corn; 62 g/ha", "result": 50}, {"measurement": "Plant response rating, Corn", "setting": "corn; 250 g/ha", "result": 90}, {"measurement": "Plant response rating (0 to 100), Corn", "setting": "corn; Rate 4 g/ha", "result": 30}, {"measurement": "Plant response rating (0 to 100), Corn", "setting": "corn; Rate 16 g/ha", "result": 40}, {"measurement": "Plant response rating, Morningglory", "setting": "morningglory; 62 g/ha", "result": 95}, {"measurement": "Plant response rating, Morningglory", "setting": "morningglory; 250 g/ha", "result": 100}, {"measurement": "Plant response rating (0 to 100), Morningglory", "setting": "morningglory; Rate 4 g/ha", "result": 50}, {"measurement": "Plant response rating (0 to 100), Morningglory", "setting": "morningglory; Rate 16 g/ha", "result": 70}, {"measurement": "Plant response rating Pigweed", "setting": "pigweed; 62 g/ha", "result": 100}, {"measurement": "Plant response rating Pigweed", "setting": "pigweed; 250 g/ha", "result": 100}, {"measurement": "Plant response rating (0 to 100), Pigweed", "setting": "pigweed; Rate 4 g/ha", "result": 90}, {"measurement": "Plant response rating (0 to 100), Pigweed", "setting": "pigweed; Rate 16 g/ha", "result": 100}, {"measurement": "Plant response rating, Sorghum", "setting": "sorghum; 62 g/ha", "result": 60}, {"measurement": "Plant response rating, Sorghum", "setting": "sorghum; 250 g/ha", "result": 100}, {"measurement": "Plant response rating (0 to 100), Sorghum", "setting": "sorghum; Rate 4 g/ha", "result": 30}, {"measurement": "Plant response rating (0 to 100), Sorghum", "setting": "sorghum; Rate 16 g/ha", "result": 40}, {"measurement": "Plant response rating (0 to 100), Rice Japonica", "setting": "rice [2]; [3]", "result": 10}, {"measurement": "Plant response rating (0 to 100), Rice Japonica", "setting": "rice [2]; [4]", "result": 30}, {"measurement": "Plant response rating Rice Japonica", "setting": "rice [2]; 62 g/ha", "result": 60}, {"measurement": "Plant response rating Rice Japonica", "setting": "rice [2]; 250 g/ha", "result": 85}, {"measurement": "Plant response rating (0 to 100), Umbrella sedge", "setting": "umbrella sedge; [3]", "result": 30}, {"measurement": "Plant response rating (0 to 100), Umbrella sedge", "setting": "umbrella sedge; [4]", "result": 60}, {"measurement": "Plant response rating Umbrella sedge", "setting": "umbrella sedge; 62 g/ha", "result": 80}, {"measurement": "Plant response rating Umbrella sedge", "setting": "umbrella sedge; 250 g/ha", "result": 100}, {"measurement": "Plant response rating (0 to 100), Barnyardgrass 2", "setting": "barnyardgrass; [3]", "result": 65}, {"measurement": "Plant response rating (0 to 100), Barnyardgrass 2", "setting": "barnyardgrass; [4]", "result": 100}, {"measurement": "Plant response rating Barnyardgrass 2", "setting": "barnyardgrass; 62 g/ha", "result": 100}, {"measurement": "Plant response rating Barnyardgrass 2", "setting": "barnyardgrass; 250 g/ha", "result": 100}]}
